Changes are numbered by the printed parent chain. Numbers in names are those of the source. Entries after “also recorded” stand apart in the source; their conditions may differ. Where two headings read alike, the source gives them in different places.
T1: AtHNL (Arabidopsis thaliana, UniProt Q9LFT6)
T1 construct: made in house; host or cells: E. coli BL21(DE3), plasmid pAtHNL (pET28a, NcoI/XhoI)
T1 sequence (Q9LFT6 1-258): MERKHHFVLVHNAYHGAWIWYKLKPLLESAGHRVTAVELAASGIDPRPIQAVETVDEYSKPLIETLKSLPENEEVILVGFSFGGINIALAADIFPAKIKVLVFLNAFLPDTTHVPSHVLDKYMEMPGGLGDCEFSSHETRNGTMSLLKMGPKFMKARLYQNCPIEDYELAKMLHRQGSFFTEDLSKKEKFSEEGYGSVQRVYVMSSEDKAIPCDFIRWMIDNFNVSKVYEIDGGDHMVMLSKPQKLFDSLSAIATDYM

B1: AtHNL: hydroxynitrile lyase from Arabidopsis thaliana, polypeptide of the invention, SEQ ID NO: 1 (protein, listed as Arabidopsis thaliana)
chain: T1 sequence (Q9LFT6 1-258)
B2: L129W: AtHNL (SEQ ID NO: 1) with leucine 129 exchanged for tryptophan (protein, listed as Arabidopsis thaliana)
chain: T1 sequence (Q9LFT6 1-258) with L129W
B3: H236F: AtHNL (SEQ ID NO: 1) with point mutation H236F, catalytic triad residue exchanged (protein, listed as Arabidopsis thaliana)
chain: T1 sequence (Q9LFT6 1-258) with H236F
B4: S81A: AtHNL (SEQ ID NO: 1) with point mutation S81A, catalytic triad residue exchanged (protein, listed as Arabidopsis thaliana)
chain: T1 sequence (Q9LFT6 1-258) with S81A
B5: D208N: AtHNL (SEQ ID NO: 1) with point mutation D208N, catalytic triad residue exchanged (protein, listed as Arabidopsis thaliana)
chain: T1 sequence (Q9LFT6 1-258) with D208N
B6: Y14C: AtHNL (SEQ ID NO: 1) with tyrosine 14 exchanged for cysteine (protein, listed as Arabidopsis thaliana)
chain: T1 sequence (Q9LFT6 1-258) with Y14C
B7: N12T: AtHNL (SEQ ID NO: 1) with asparagine 12 exchanged for threonine, preferably as double mutation with Y14C (protein, listed as Arabidopsis thaliana)
chain: T1 sequence (Q9LFT6 1-258) with N12T

Columns and labels:
Assay type in all cases: biochemical
AtHNL [1] = target: T1, AtHNL
AtHNL [2] = target: T1, AtHNL; conditions: pH 5
AtHNL [3] = target: T1, AtHNL; experiment: Cleavage of mandelonitrile, determination of liberated benzaldehyde (cell test); conditions: cleavage reaction of cyanohydrin by AtHNL, citrate-phosphate buffer pH 5
Protocol: Ia) Cleavage of Mandelonitrile(=Benzaldehyde Cyanohydrin), Determination of Liberated Benzaldehyde (Cell Test):
The protocol employed was based on the test described by Bauer et al in 1999 and was only modified slightly. 700 μl of citrate-phosphate buffer, pH 5 (48.5 mL 0.1M citric acid, 51.5 mL 0.2 M dipotassium hydrogen phosphate, qsp 100 ml water) was mixed with 100 μl of enzyme sample in a quartz glass cell and the reaction was started with 200 μl of mandelonitrile solution (60 mM in citrate-phosphate buffer, pH 3.5 (1.82 mL 0.1 M citric acid, 1.06 mL 0.1 M disodium hydrogen phosphate, qsp 100 mL water). The increase in the extinction at 280 nm was monitored for 2 min. It was proportional to the benzaldehyde concentration in the sample. Self-degradation of the cyanohydrin was determined in a control sample without enzyme and subtracted from the values measured for the enzyme sample. In order to determine the remaining activity in the course of the stability tests described in Example 5d, a slightly altered procedure was used: 870 μl of citrate buffer (50 mM, pH 4) was supplemented with 30 μl of enzyme sample, the reaction was started by adding 100 μl of mandelonitrile (60 mM in 50 mM of citrate buffer, pH 2) and monitored for 2 minutes at 280 nm. […] The enzyme activity is, however, much lower with this procedure.

[4] = Demonstration of stereoselectivity (chiral gas chromatography and cleavage test with enantiomerically pure benzaldehyde cyanohydrin)
[5] = Activity of AtHNL preparations from fed batch fermentation
[6] = HNL activity test of cloned and expressed Arabidopsis proteins resembling MeHNL; conditions: cloned, expressed heterologously in E. coli; listed as At5g10300
Excerpt: The Arabidopsis thaliana plant (mouse-ear cress) is a model organism (accessible genome, short generation period) and thus has been comprehensively investigated. The genome has been completely sequenced and recorded in sequence databases. Examples of such databases are, for example, the “Genbank” as a collection of all published sequences, or TAIR as a database restricted to a single organism (in this case Arabidopsis). Because of the great strides made in molecular biology, many new sequences are being input into the appropriate databases than can be individually assessed and described. Thus, until now genes which have been identified as true genes but which have not been further investigated have automatically been ascribed types by appropriate computer algorithms because of their similarities to known sequences. Whether the function stated in this description is true, however, must be individually ascertained for each protein. […] The increase in the extinction at 280 nm was monitored for 2 min. […] Self-degradation of the cyanohydrin was determined in a control sample without enzyme and subtracted from the values measured for the enzyme sample. […]

[7] = Point mutations in SEQ ID NO: 1 (AtHNL variants)
[8] = after Q-Sepharose, desalting and lyophilization

Molecule	ee (R) (%) (AtHNL [1])	Transformation (%) (AtHNL [1]; pH 4)	Transformation (%) (AtHNL [1])	further results
CCC(C)=O [2-butanone]	0	>95	–	–
CCCCCC(C)=O [2-heptanone]	9	9	–	–
CCCCC(C)=O [2-hexanone]	0	–	–	–
CCCCCCC(C)=O [2-octanone]	–	0	–	–
CCCC(C)=O [2-pentanone]	0	>95	–	–
O=Cc1cccc(Oc2ccccc2)c1 [3-phenoxybenzaldehyde]	78	73	–	–
O=Cc1ccc(Cl)cc1 [4-chlorobenzaldehyde]	95	98	–	–
COc1ccc(C=O)cc1 [4-methoxybenzaldehyde]	–	22.6	–	–
CC(O)C#N (centres unmarked) [Acetaldehyde cyanohydrin]	–	–	–	Specify activity (U/mg), HCN-Test (see Ib above) (AtHNL [2]): <0.05 U/mg
N#CC(O)c1ccccc1 (centres unmarked) [Benzaldehyde cyanohydrin]	–	–	–	Specify activity (U/mg), Benzaldehyde Test (see Ia above) (AtHNL [3]): 12.5 U/mg
O=Cc1ccccc1 [Benzaldehyde]	–	>99.9	–	–
CC(=O)CCc1ccccc1 [Benzyl acetone]	40	9	–	–
CCCCCCC=O [Heptanal]	>80	>99.9	–	–
CCCCCC=O [Hexanal]	–	98	–	–
CCCCCCCC=O [Octanal]	–	89	–	–
O=CCc1ccccc1 [Phenylacetaldehyde]	71	90	–	–
CCC(O)C#N (centres unmarked) [Propionaldehyde cyanohydrin]	–	–	–	Specify activity (U/mg), HCN-Test (see Ib above) (AtHNL [2]): <0.05 U/mg
C=CCc1ccccc1 [compound 17]	96	–	97	–
O=CCCc1ccccc1 [compound 18]	68	–	99	–

Molecule	ee (R) (%) (AtHNL [1])	Transformation (%) (AtHNL [1]; pH 4)	Transformation (%) (AtHNL [1])	further results
O=Cc1cccs1 [compound 19]	–	–	68	–
CCCCCC=O [compound 20]	98	–	99	–
CCCCCCCCCC=O [compound 21]	>95	–	56	–
CCC/C=C/C=O [compound 22]	–	–	53	–
CC(=O)CCC=C(C)C [compound 23]	–	–	0	–
CCCCC(C)=O [compound 24]	95	–	48	–
CCCCCCCCC(C)=O [compound 25]	–	–	2	–
O=C1CCCCC1 [compound 26]	–	–	94	–
CC(=O)c1ccccc1 [compound 27]	–	–	7	–
CC(=O)c1ccccc1F [compound 28]	95	–	8	–
CC(=O)CCc1ccccc1 [compound 29]	–	–	1	–
B1	–	–	–	stereoselectivity [4]: Only the (R) enantiomer formed or was transformed; activity per lyophilisate [5, 8]: 2.5 U/mg of lyophilisate; specific activity [5, 8]: approximately 40 U/mg protein; specific activity ([5]; unrefined extract): 13.3 U/mg; volumetric activity ([5]; unrefined extract): approx 800 U/ml; HNL activity (Remarks/misc) [6]: high activity; also recorded: HNL activity (a poly-
B2	–	–	–	effect of the point mutation on substrate spectrum / enantioselectivity [7]: reversal of enantioselectivity
B3	–	–	–	activity of the polypeptide after exchange of catalytic triad residues [7]: no longer exhibited any activity
B4	–	–	–	activity of the polypeptide after exchange of catalytic triad residues [7]: no longer exhibited any activity
B5	–	–	–	activity of the polypeptide after exchange of catalytic triad residues [7]: no longer exhibited any activity
B6	–	–	–	effect of the point mutation on substrate spectrum / enantioselectivity [7]: reversal of enantioselectivity
B7	–	–	–	effect of the point mutation on substrate spectrum / enantioselectivity [7]: broadening of substrate spectrum to ketones
